Source: US9814865B2, “Coated medical device” (Cook Medical Technologies LLC, priority 2000, dated 2017)

Experiment: physical adhesion test simulating introduction and deployment of paclitaxel-coated stents
Format: physicochemical
Conditions: passed through water-filled guiding catheter, balloon-expanded, measured by spectrometry
Description: More particularly, the adhesion of paclitaxel to two types of stainless steel, grit abraded stents was compared to its adhesion to stents of those types whose surfaces had instead been plasma treated prior to the direct deposition of paclitaxel thereon (control stents). The coated stents of both types, that is, medical devices 10 of the present invention and control stents, were then subjected to a physical adhesion test which simulated the rate at which paclitaxel would be delivered during introduction and deployment of the stents in clinical use. The adhesion test involved passing each stent through a water-filled guiding catheter of appropriate diameter and inflating the balloon catheter to expand each stent to its intended diameter. The stents are already mounted before coating. The amount of paclitaxel remaining on each stent was then measured by spectrometry and compared to the amount of paclitaxel initially posited on each stent. Stents having surfaces 16 roughened or textured by abrasion with different abrasive grits 24 retained 84.1±10.2% of the paclitaxel originally applied, while stents having plasma treated surfaces retained only 44.3±8.7% of the paclitaxel originally applied (p<0.0001).

paclitaxel originally applied retained on stent after adhesion test (stainless steel control stents with plasma treated surfaces, p<0.0001 vs abraded): 44.3±8.7%
paclitaxel originally applied retained on stent after adhesion test (stainless steel stents, surfaces roughened or textured by abrasion with different abrasive grits): 84.1±10.2%
Compound: CC(=O)O[C@H]1C(=O)[C@@]2(C)[C@H]([C@H](OC(=O)c3ccccc3)[C@]3(O)C[C@H](OC(=O)[C@H](O)[C@@H](NC(=O)c4ccccc4)c4ccccc4)C(C)=C1C3(C)C)[C@]1(OC(C)=O)CO[C@@H]1C[C@@H]2O [paclitaxel]
